Results from patent US9273018B2, “Piperazine derivatives” (St. Mary's University, priority 2011, dated 2016).

Key:
Format in all cases: cell-based
[1] = system: U87MG glioblastoma cancer cells; test: Cytotoxicity of glioblastoma cancer cells (relative cell density); details: Homo sapiens, U-87 MG, relative cell density as percent of control, FIG. 1, read-out: LD50 (the source's name)
Protocol: U87MG glioblastoma cancer cells were cultured according to established protocols (Martinkova et al., Cytotoxicity of and DNA adduct formation by ellipicine in human U87MG glioblastoma cancer cells. Neuro Endocrinol Lett 30 (Suppl 1):60-6, 2009). Temozolomide was added to the cell culture media at increasing doses and the relative cell density, as a percent of control cells not exposed to temozolomide, was calculated. Temozolomide is one of the primary treatments for glioblastoma type cancers and dacarbazine is an antineoplastic chemotherapy used in the treatment of various cells.
To test the cytotoxic effect of 1-[(E)-2-(4-nitrophenyl)diazen-1-yl]-4-phenylpiperazine, 4-[(E)-2-(4-phenylpiperazin-1-yl)diazen-1-yl]benzonitrile, methyl 4-[(E)-2-(4-phenylpiperazin-1-yl)diazen-1-yl]benzoate, methyl 4-[(E)-2-[4-(4-chlorophenyl)piperazin-1-yl)diazen-1-yl]benzoate, 1-[(E)-2-(4-bromophenyl)diazen-1-yl]-4-[(3-methylphenyl)methyl]piperazine, 4-[(E)-2-{4-[(3-methylphenyl)methyl]piperazin-1-yl}diazen-1-yl]benzonitrile serial dilutions of the compounds were made and added to the cell culture media containing the U87MG glioblastoma cancer cells. The relative cell density, as a percent of control cells not exposed to temozolomide, dacarbazine or the experimental compounds, was calculated.

HT29 colon cancer cells = test: Cytotoxicity of HT29 colon cancer cells (relative cell density); details: Homo sapiens, HT-29, relative cell density as percent of control, FIG. 3, read-out: LD50 (the source's name)
A549 lung cancer cells = test: Cytotoxicity of A549 lung cancer cells (relative cell density); details: relative cell density as percent of control, FIG. 2
Protocol: A549 lung cancer cells were cultured according to established protocols (Lieber M. et al., Int. J. Cancer 17: 62-70, 1976). Temozolomide and dacarbazine were separately added to the cell culture media at increasing doses and the relative cell density, as a percent of control cells not exposed to temozolomide or dacarbazine, was calculated.
To test the cytotoxic effect of 1-[(E)-2-(4-nitrophenyl)diazen-1-yl]-4-phenylpiperazine, methyl 4-[(E)-2-(4-phenylpiperazin-1-yl)diazen-1-yl]benzoate, 1-{4[(E)-2-[4-(3,4-dichlorophenyl)piperazin-1-yl]phenyl}ethan-1-one, 1-{4-[(E)-2-[4-pyridin-2-yl)piperazin-1-yl]diazen-1-yl]phenyl}ethan-1-one, serial dilutions of the compounds were made and added to the cell culture media containing the A549 lung cancer cells. The relative cell density, as a percent of control cells not exposed to temozolomide, dacarbazine or the experimental compounds, was calculated.

SMILES	IC50 [1]	IC50 (HT29 colon cancer cells)	LD50 (A549 lung cancer cells)
O=[N+]([O-])c1ccc(/N=N/N2CCN(c3ccccc3)CC2)cc1 [Compound 1, 1-[(E)-2-(4-nitrophenyl)diazen-1-yl]-4-phenylpiperazine]	4.36 µM	2.5 µM	5.27 µM
N#Cc1ccc(/N=N/N2CCN(c3ccccc3)CC2)cc1 [Compound 2, 4-[(E)-2-(4-phenylpiperazin-1-yl)diazen-1-yl]benzonitrile]	12.4 µM	2.6 µM	
COC(=O)c1ccc(/N=N/N2CCN(c3ccccc3)CC2)cc1 [Compound 3, Methyl 4-[(E)-2-(4-phenylpiperazin-1-yl)diazen-1-yl]benzoate]	16.2 µM	3.9 µM	25.5 µM
Cc1ccc(/N=N/N2CCN(c3ccccc3)CC2)cc1 [Compound 7, 1-[(E)-2-(4-methylphenyl)diazen-1-yl]-4-phenylpiperazine]		9.6 µM	
COC(=O)c1ccc(/N=N/N2CCN(c3ccc(Cl)cc3)CC2)cc1 [Compound 12, methyl 4-[(E)-2-[4-(4-chlorophenyl)piperazin-1-yl)diazen-1-yl]benzoate]	22.2 µM		
CC(=O)c1ccc(/N=N/N2CCN(c3ccc(Cl)c(Cl)c3)CC2)cc1 [Compound 22]		3.4 µM	3.4 µM
COC(=O)c1ccc(/N=N/N2CCN(c3ccccn3)CC2)cc1 [Compound 42, methyl 4-[(E)-2-[4-(pyridin-2-yl)piperazin-1-yl]diazen-1-yl]benzoate]		14.6 µM	
CC(=O)c1ccc(/N=N/N2CCN(c3ccccn3)CC2)cc1 [Compound 45]		11.2 µM	15.6 µM
N#Cc1ccccc1N1CCN(/N=N/c2ccc(Br)cc2)CC1 [Compound 49, 2-{4-[(E)-2-(4-bromophenyl)diazen-1-yl]piperazin-1-yl}benzonitrile]		5.2 µM	
Cc1cccc(CN2CCN(/N=N/c3ccc(C#N)cc3)CC2)c1 [Compound 68, 4-[(E)-2-{4-[(3-methylphenyl)methyl]piperazin-1-yl}diazen-1-yl]benzonitrile]	14 µM	13.5 µM	
Cc1cccc(CN2CCN(/N=N/c3ccc(Br)cc3)CC2)c1 [Compound 70, 1-[(E)-2-(4-bromophenyl)diazen-1-yl]-4-[(3-methylphenyl)methyl]piperazine]	12.2 µM	17.6 µM	
Cn1nnc2c(C(N)=O)ncn2c1=O [Temozolomide, reference compound]	25.5 µM		60.4 µM
CN(C)/N=N/c1[nH]cnc1C(N)=O [dacarbazine, reference compound]	25 µM	25.2 µM	25.7 µM
